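Exposure lasted 48 hours, with cells grown in 96-well plates and compounds tested at five concentrations. GI50: concentration for 50% inhibition of growth. TGI is the concentration that stops growth completely.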
Tests used:
Assay in all cases: NCI anticancer screen, dose series, 48 h
OVCAR-4 ovarian = test system: OVCAR-4 ovarian
MOLT-4 leukemia = test system: MOLT-4 leukemia
HCC-2998 colon = test system: HCC-2998 colon
SNB-19 CNS = test system: SNB-19 CNS
MDA-MB-231 breast = test system: MDA-MB-231 breast
T-47D breast = test system: T-47D breast
786-0 renal = test system: 786-0 renal
UACC-62 melanoma = test system: UACC-62 melanoma
SR leukemia = test system: SR leukemia
HOP-62 NSCLC = test system: HOP-62 NSCLC

SMILES	TGI (OVCAR-4 ovarian) [µM]	TGI (MOLT-4 leukemia) [µM]	TGI (HCC-2998 colon) [µM]	TGI (SNB-19 CNS) [µM]	TGI (MDA-MB-231 breast) [µM]	TGI (T-47D breast) [µM]	TGI (786-0 renal) [µM]	TGI (UACC-62 melanoma) [µM]	TGI (SR leukemia) [µM]	TGI (HOP-62 NSCLC) [µM]	GI50 (OVCAR-4 ovarian) [µM]	GI50 (MOLT-4 leukemia) [µM]	GI50 (HCC-2998 colon) [µM]	GI50 (SNB-19 CNS) [µM]	GI50 (MDA-MB-231 breast) [µM]	GI50 (T-47D breast) [µM]	GI50 (786-0 renal) [µM]	GI50 (UACC-62 melanoma) [µM]	GI50 (SR leukemia) [µM]	GI50 (HOP-62 NSCLC) [µM]
O=C1c2ccccc2C(=O)c2c1ccc1c3ccccc3n(-c3ccccc3)c21	33.5	11.1	72.6	> 100	77.7	45.5	52.4	24.1	41.9	> 100	–	–	–	–	–	–	–	–	–	–
Oc1ccccc1/C=N\NC(=S)Nc1ccc(F)cc1	49.4	> 31.1	28.5	> 100	> 100	60.1	> 100	4	10.5	> 65	0.462	0.586	3.28	2.32	1.74	3.34	3.38	0.95	0.415	0.832
COC(=O)C(=O)C(C(=O)C(=O)Nc1cc(C)ccc1C)c1nc2ccccc2[nH]c1=O (stereo not given)	> 100	> 100	> 100	> 100	> 100	> 100	> 100	> 100	> 100	> 100	–	–	–	–	–	–	–	–	–	–
COc1oc(C2C/C(=C/C(C)=C/C(C)=C/C(C)=C/c3ccc([N+](=O)[O-])cc3)CO2)c(C)c(=O)c1C (stereo not given)	> 42.2	10.2	> 100	73.7	38.9	6.81	21.6	> 54.8	3	> 100	–	–	–	–	–	–	–	–	–	–
O=C(O)CCCCCNCc1cc2cc3c(cc2c2cc(OCc4ccccc4)ccc12)OCO3	12.6	24.2	3.37	20.7	3.88	5.04	3.25	3.44	5.3	5.25	3.26	2.23	1.71	4.05	1.88	2.06	1.68	1.8	1.7	2
COc1cc(/C=N\Nc2ccccc2)ccc1OC(=O)c1ccccc1	> 100	> 100	17.1	> 100	32.2	> 85.9	> 100	4.47	> 100	> 64.7	8.21	1.94	3.83	19.8	1.91	0.268	5.09	0.311	16.5	8.38
N#Cc1ccc2c(-c3ccnc(NC4CC4)n3)c(-c3ccc(F)cc3)nn2c1	> 25	> 25	> 25	> 25	> 25	> 25	> 25	> 25	> 25	> 25	> 25	> 25	> 25	> 25	> 25	> 25	> 25	> 25	> 25	> 25

Reference: PubChem BioAssay (NCI)
